According to ChEMBL document CHEMBL4130467, “Isolation and Structural Characterization of Echinocystic Acid Triterpenoid Saponins from the Australian Medicinal and Food Plant Acacia ligulata” (J Nat Prod, 2017):

Legend:
HFF = assay: Cytotoxicity against HFF assessed as reduction in cell viability after 48 hrs by sulforhodamine B assay; format: cell-based; details: Homo sapiens
SK-MEL-28 = assay: Cytotoxicity against human SK-MEL-28 cells assessed as reduction in cell viability after 48 hrs by sulforhodamine B assay; format: functional, cell-based; details: SK-MEL-28, 48 h

SMILES	IC50 (HFF) [µM]	IC50 (SK-MEL-28) [µM]
CC(=O)N[C@H]1[C@H](O[C@H]2CC[C@]3(C)[C@H]4CC=C5[C@@H]6CC(C)(C)CC[C@]6(C(=O)O[C@@H]6OC[C@H](O)[C@H](O)[C@H]6O[C@@H]6O[C@@H](C)[C@H](O[C@@H]7O[C@@H](CO)[C@H](O)[C@H]7O)[C@@H](O[C@@H]7OC[C@@H](O)[C@H](O)[C@H]7O)[C@H]6O)[C@H](O)C[C@@]5(C)[C@]4(C)CC[C@H]3C2(C)C)O[C@H](CO)[C@@H](O[C@@H]2O[C@H](CO)[C@@H](O)[C@H](O)[C@H]2O)[C@@H]1O	14.2	15
CC(=O)N[C@H]1[C@H](O[C@H]2CC[C@]3(C)[C@H]4CC=C5[C@@H]6CC(C)(C)CC[C@]6(C(=O)O[C@@H]6OC[C@H](O)[C@H](O)[C@H]6O[C@@H]6O[C@@H](C)[C@H](O[C@@H]7O[C@@H](COC(C)=O)[C@H](O)[C@H]7O)[C@@H](O[C@@H]7OC[C@@H](O)[C@H](O)[C@H]7O)[C@H]6O)[C@H](O)C[C@@]5(C)[C@]4(C)CC[C@H]3C2(C)C)O[C@H](CO)[C@@H](O[C@@H]2O[C@H](CO)[C@@H](O)[C@H](O)[C@H]2O)[C@@H]1O	13.4	25
